Our source for the Kd values is article PMC5881531 (FEBS Open Bio, 2018).

The structures appear in SMILES notation.

The target in this test is T1, Dihydroorotate dehydrogenase of Trypanosoma brucei (TbDHODH), FMN-free form (Trypanosoma brucei, UniProt Q57U83, A115V).
T1 construct: gene Tb927.5.3830
The test can be described thus: biochemical.

The term Kd denotes the concentration at which binding is half-saturated. Read a low Kd as a tighter complex.

T1 sequence (Q57U83 whole entry A115V): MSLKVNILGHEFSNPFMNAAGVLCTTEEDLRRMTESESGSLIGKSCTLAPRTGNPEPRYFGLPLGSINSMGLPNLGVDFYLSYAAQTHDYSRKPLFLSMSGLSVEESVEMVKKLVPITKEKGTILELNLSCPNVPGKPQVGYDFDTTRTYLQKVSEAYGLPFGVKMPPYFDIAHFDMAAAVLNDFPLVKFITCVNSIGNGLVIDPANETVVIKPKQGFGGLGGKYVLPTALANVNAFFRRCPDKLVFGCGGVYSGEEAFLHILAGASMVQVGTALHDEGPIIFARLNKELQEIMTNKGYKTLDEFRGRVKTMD

Take `Cc1cc2nc3c(=O)[nH]c(=O)nc-3n(C[C@H](O)[C@H](O)[C@H](O)COP(=O)(O)O)c2cc1C` [FMN]: the Kd was 12 nM.
